According to patent US8440674B2, “Substituted pyrimidine compounds as RAF inhibitors and methods of use” (Amgen Inc., priority 2005, dated 2013):
Where two headings read alike, the source gives them in different places.

What was measured:
recombinant HuBraf V600E = recombinant HuBraf V600E (Homo sapiens, UniProt P15056, V600E); assay: B-raf Homogenous Time Resolved Fluorescent (HTRF) kinase assay; assay type: biochemical; settings: substrate MEK1, 10 uM ATP; threshold lists; read-out: IC50 for the inhibition of B-raf as measured by the HTRF assay
Sequence of recombinant HuBraf V600E (P15056 whole entry V600E): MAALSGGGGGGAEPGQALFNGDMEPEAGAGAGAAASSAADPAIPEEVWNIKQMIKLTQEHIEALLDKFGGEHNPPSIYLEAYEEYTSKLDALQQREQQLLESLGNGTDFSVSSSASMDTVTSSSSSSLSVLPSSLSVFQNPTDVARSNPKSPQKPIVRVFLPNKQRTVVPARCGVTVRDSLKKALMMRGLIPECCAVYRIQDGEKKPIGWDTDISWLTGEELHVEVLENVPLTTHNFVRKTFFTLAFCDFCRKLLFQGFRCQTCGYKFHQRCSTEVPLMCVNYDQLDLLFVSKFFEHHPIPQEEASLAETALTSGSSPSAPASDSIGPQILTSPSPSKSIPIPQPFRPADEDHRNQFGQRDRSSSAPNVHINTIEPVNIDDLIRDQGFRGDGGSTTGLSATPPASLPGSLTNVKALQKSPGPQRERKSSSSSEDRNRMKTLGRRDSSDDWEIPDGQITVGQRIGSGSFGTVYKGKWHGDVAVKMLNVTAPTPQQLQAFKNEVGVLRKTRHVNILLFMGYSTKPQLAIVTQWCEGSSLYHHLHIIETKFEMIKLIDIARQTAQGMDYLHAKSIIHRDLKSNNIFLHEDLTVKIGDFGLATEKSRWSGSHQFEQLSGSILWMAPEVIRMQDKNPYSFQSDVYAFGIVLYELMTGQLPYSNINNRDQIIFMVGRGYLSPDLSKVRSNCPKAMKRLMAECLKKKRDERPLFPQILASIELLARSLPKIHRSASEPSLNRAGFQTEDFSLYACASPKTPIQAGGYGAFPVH

[1] = test system: A375 cells, a human melanoma cell line having the V600E mutant Braf; assay: B-Raf cell-based assay (ratio of phospho-ERK1/2 to total ERK1/2); settings: A-375, 1 h, P-ERK/total ERK, 60 minute incubation, read-out: IC50 for the inhibition of B-raf as measured by the cell-based assay

Structure (SMILES) | IC50 (recombinant HuBraf V600E) | IC50 ([1]; threshold list) | IC50 ([1]; threshold lists)
CNc1ncc2cc(-c3c(C)sc4c(Nc5cccc(C(F)(F)F)c5)nccc34)ccc2n1 [Example 393, N-methyl-6-(2-methyl-7-(3-(trifluoromethyl)phenylamino)thieno[2,3-c]pyridin-3-yl)quinazolin-2-amine] | ≤ 0.25 µM | – | ≤ 5 µM
CNc1ncc2cc(-c3c(C)ccc4c(Nc5cccc(C(F)(F)F)c5)nsc34)ccc2n1 [Example 398, N-methyl-6-(6-methyl-3-(3-(trifluoromethyl)phenylamino)benzo[d]isothiazol-7-yl)quinazolin-2-amine] | ≤ 0.25 µM | ≤ 0.5 µM | –
CNc1ncc2cc(-c3c(C)cnc4c(Nc5ccc(OC)c(C(F)(F)F)c5)nccc34)ccc2n1 [Example 410] | ≤ 1 µM | ≤ 0.5 µM | –

The remaining lines, values ahead:

IC50 (recombinant HuBraf V600E) | IC50 ([1]; threshold list) | IC50 ([1]; threshold lists) | Structure (SMILES)
≤ 0.25 µM | ≤ 0.5 µM | – | CNc1ncc2cc(-c3c(C)sc4c(Nc5ccc(OC)c(C(F)(F)F)c5)nccc34)ccc2n1 [Example 392, 6-(7-(4-methoxy-3-(trifluoromethyl)phenylamino)-2-methylthieno[2,3-c]pyridin-3-yl)-N-methylquinazolin-2-amine]
≤ 0.25 µM | ≤ 0.5 µM | – | CNc1ncc2cc(-c3c(C)ccc4c(Oc5cccc(C(F)(F)F)c5)nccc34)ccc2n1 [Example 395, N-methyl-6-(6-methyl-1-(3-(trifluoromethyl)phenoxy)isoquinolin-5-yl)quinazolin-2-amine]
≤ 0.25 µM | ≤ 0.5 µM | – | CNc1ncc2cc(-c3c(C)ccc4c(Nc5ccc(OC)c(C(F)(F)F)c5)nsc34)ccc2n1 [Example 399, 6-(3-(4-methoxy-3-(trifluoromethyl)phenylamino)-6-methylbenzo[d]isothiazol-7-yl)-N-methylquinazolin-2-amine]
